Read-outs that look alike come from different tables or passages of the source.
What was measured:
GFAP-lacZ transgene = experiment: chemiluminescent β-galactosidase activity assay of GFAP-lacZ transgene expression in T6/GFAP-lacZ cells; format: cell-based, rat
Method: (§1) Cells were initially seeded in 12-well plates in DMEM supplemented with 10% FBS and weaned to a low serum DMEM (0.5% FBS) at a confluence of 70-80% for 12 hours of adaptation. Cells were then incubated with different concentrations of compounds for various amounts of time before being assayed for β-galactosidase activity and GFAP mRNA. For compound attenuation studies, cells were treated with a pro-fibrotic cytokine (TGF-β1 or PDGF-BB) either sequentially or concurrently with a compound (EGCG or genistein). In the sequential scheme, cells were first treated with a cytokine for 1-3 days, then the cytokine-containing culture medium was replaced with a fresh medium containing a particular compound only for various times. Details of the cytokine/compound treatments can be found in the individual figure legends.
(§2) A lacZ reporter assay kit for cell staining (InvivoGen, CA, USA) was used to detect the reporter gene activity in T6/GFAP-lacZ cells treated with EGCG or genistein. The staining results were documented with a digital camera (DP12) attached to an Olympus inverted bright field microscope (IX51) after development for 60 min. For quantification, the β-galactosidase activity in cell extracts was measured using a chemiluminescent assay kit (Roche, Mannheim, Germany) in a 96-well plate format, according to the manufacturer's instructions. Briefly, cells were washed twice with ice-cold 1×PBS (pH 7.4), lysed for 30 minutes at room temperature with the lysis buffer, and supernatant was collected for assays. Protein concentration was determined with a BCA protein assay kit (Pierce, Ill., USA). Specific β-galactosidase activity was obtained by normalizing against total cellular protein content.

T6/GFAP-lacZ cells [1] = experiment: X-gal stained images of T6/GFAP-lacZ cells (cell number); format: cell-based, rat; settings: 24 hours, low serum (0.5% FBS) DMEM
Method: FIG. 15 depicts X-gal staining of T6/GFAP-lacZ cells. Incubation with A) DMSO vehicle control; B) 25 μM EGCG; and C) 40 μM genistein in a low serum DMEM for 24 hours. Images were captured after 60 min of X-gal staining;
as §2
EGCG is a major catechin from green tea leaves associated with a wide range of beneficial activities including anti-oxidation, anti-inflammation and anti-fibrosis, whereas genistein is a major flavonoid found abundantly in soy bean with anti-tumor and pro-apoptotic activities. […]

endogenous rat GFAP mRNA = experiment: real-time RT-PCR for endogenous rat GFAP mRNA in T6/GFAP-lacZ cells; format: cell-based
Method: as §1
Total RNA was reverse-transcribed to cDNA using Taqman's reverse transcription reagent (Applied Biosystems, CA, USA). A total of 200 ng of RNA in 7.7 μl of nuclease-free water was added to 2 μl 10× reverse transcriptase buffer, 4.4 μl 25 mM magnesium chloride, 4 μl deoxyNTP mixtures, 1 μl random hexamers, 0.4 μl RNase inhibitor and 0.5 μl reverse transcriptase (50 U/μl) in a final reaction volume of 20 μl. The reaction was performed for 10 min at 25° C. (annealing), 30 min at 48° C. (cDNA synthesis) and 5 min at 95° C. (enzyme denaturation).
Real-time quantitative PCR was carried out with an ABI 7500 Fast Real-time PCR System (Applied Biosystems, CA, USA). Two micro liters of sample cDNA were used in each PCR reaction, with β-actin gene as a reference for normalization. The primers and probes for rat β-actin and GFAP were ordered from Taqman's assay-on-demand database. The PCR reaction was performed under a default profile consisting of 95° C. for 20 seconds (enzyme denaturation) and 40 cycles of amplification (denaturation 3 seconds, annealing and extension 30 seconds). Some of the real-time RT-PCR reactions were separated on an agarose gel for visual confirmation of discrete products (data not shown).
Relative quantitation of the target mRNA was calculated using the comparative threshold cycle (CT) methods as described in the User Bulletin #2 (ABI Prism 7700 Sequence Detection System). CT indicates the fractional cycle number at which the amount of amplified target reaches a fixed threshold within the linear phase of gene amplification. ΔCT, which reflects the difference between CT target and CT β-actin, is inversely correlated to the abundance of mRNA transcripts in the samples. ACT for each sample was normalized against control experiment or calibrator and expressed as ΔΔCT. Relative quantitation is given by 2^−ΔΔCT to express the up-regulation or down-regulation of the target gene under the treatments compared to the control.

[2] = Yang et al. (1998); cited from earlier work
T6/GFAP-lacZ cells [3] = experiment: tetrazolium-based proliferation assay of T6/GFAP-lacZ cells; format: cell-based, rat; settings: 48 hours, low serum (0.5% FBS) medium, read-out: IC50 of proliferation inhibition
Method: FIG. 14 illustrates that EGCG and genistein suppressed proliferation of the T6/GFAP-lacZ cells. Cells were grown in full medium to 70-80% confluence in 96-well plates, followed by compound treatment of various concentrations (0-40 μM) in a low serum medium for 48 hours before assaying for proliferation. Signal was normalized against vehicle treatment (0 μM compound). Data was obtained from three independent experiments and presented as mean ±SE.
However our genistein IC50 value for the T6/GFAP-lacZ cells was three times lower than that for the T6 cells cultured in DMEM containing 10% FBS (Kang et al., (2001) supra). Our additional data also confirmed that no significant difference in IC50 value was observed between the T6 and the T6/GFAP-lacZ cells (data not shown).

O=C(O[C@@H]1Cc2c(O)cc(O)cc2O[C@@H]1c1cc(O)c(O)c(O)c1)c1cc(O)c(O)c(O)c1 [EGCG, epigallocatechin gallate]
PDGF-induced GFAP-lacZ elevation, % of the transgenic control (GFAP-lacZ transgene; 10 ng/ml PDGF-BB, incubation with 10 μM of EGCG for two days): 60%
GFAP-lacZ transgene expression (β-galactosidase activity), % of the control (GFAP-lacZ transgene; 5 μM EGCG, 2 hours): 82%
GFAP-lacZ transgene expression (β-galactosidase activity), % of the control (GFAP-lacZ transgene; 20 μM EGCG, 2 hours): 55%
GFAP-lacZ transgene expression (β-galactosidase activity), % of the control level (GFAP-lacZ transgene; 20 μM EGCG, 4 hours): 73%
inhibitory effect on GFAP-lacZ transgene expression (GFAP-lacZ transgene; EGCG all dosages (up to 20 μM), 24 hours): completely abolished
β-galactosidase activity, % of TGF-β1-alone control (GFAP-lacZ transgene; concurrent: 10 ng/ml TGF-β1 with 20 μM EGCG 26 hours): 66%
β-galactosidase activity, % of TGF-β1-alone control (GFAP-lacZ transgene; sequential: 10 ng/ml TGF-β1 24 hours, then 20 μM EGCG 2 hours, not statistically significant): 87%
proliferation inhibition (fewer cells than control) (T6/GFAP-lacZ cells [1]; 25 μM EGCG): significant proliferation inhibition
PDGF-induced GFAP elevation, % of the endogenous control (endogenous rat GFAP mRNA; 10 ng/ml PDGF, incubation with 10 μM of EGCG for two days): 8%
GFAP transcription, % of the control level (endogenous rat GFAP mRNA; 130 nM EGCG, 48 hours): 34%
endogenous GFAP mRNA, % of the control (endogenous rat GFAP mRNA; 10 μM EGCG, 24 hours (maximum suppression)): 39%
GFAP transcription at increasing dosages (endogenous rat GFAP mRNA; EGCG dosages above 130 nM up to 20 μM, 48 hours): no further suppression
endogenous GFAP mRNA, % of TGF-β1-alone control (endogenous rat GFAP mRNA; concurrent: 1 ng/ml TGF-β1 with 5 μM EGCG, 56 hours): 29%
endogenous GFAP mRNA, % of TGF-β1-alone control (endogenous rat GFAP mRNA; sequential: 1 ng/ml TGF-β1 48 hours, then 5 μM EGCG 8 hours): 45%
half-life in human plasma [2]: about 5 hours
IC50 (T6/GFAP-lacZ cells [3]): 31 µM

O=c1c(-c2ccc(O)cc2)coc2cc(O)cc(O)c12 [genistein]
GFAP-lacZ transgene expression (β-galactosidase activity), % of the control (GFAP-lacZ transgene; 40 μM genistein, 24 hours (largest suppression)): 65%
PDGF-BB-induced GFAP-lacZ, % of PDGF-BB-alone control (GFAP-lacZ transgene; concurrent: 40 μM genistein and 10 ng/ml PDGF-BB, 72 hours): 48%
β-galactosidase activity, % of the TGF-β1-alone control (GFAP-lacZ transgene; concurrent: 40 μM genistein and 10 ng/ml TGF-β1, 48 hours): 43%
PDGF-BB-induced GFAP-lacZ, % of PDGF-BB-alone control (GFAP-lacZ transgene; sequential: 10 ng/ml PDGF-BB 48 hours, then 40 μM genistein 24 hours): 79%
suppressing effect on TGF-β1-induced β-galactosidase activity (GFAP-lacZ transgene; sequential: 10 ng/ml TGF-β1 24 hours, then 40 μM genistein 24 hours): negligible
proliferation inhibition (fewer cells than control) (T6/GFAP-lacZ cells [1]; 40 μM genistein): significant proliferation inhibition
effect on endogenous GFAP mRNA (endogenous rat GFAP mRNA; 10 μM genistein, time course 0-72 hours): less predictable, ranging from suppression at 24 hours to induction at 72 hours
endogenous GFAP mRNA, % of the control (endogenous rat GFAP mRNA; 20 μM genistein, 8 hours): 23%
endogenous GFAP mRNA, % of the control (endogenous rat GFAP mRNA; 20 μM genistein, 72 hours): 43%
TGF-β1-induced GFAP transcription, % of the control (endogenous rat GFAP mRNA; concurrent: 20 μM genistein and 1 ng/ml TGF-β1, 56 hours): 14%
endogenous GFAP transcription, % of the PDGF-BB-alone control (endogenous rat GFAP mRNA; concurrent: 20 μM genistein and 10 ng/ml PDGF, 48 hours): 6%
reliable inhibitory concentration for GFAP mRNA (endogenous rat GFAP mRNA; genistein dose experiment, 48 hours): higher than 10 μM
TGF-β1-induced GFAP transcription, % of the control (endogenous rat GFAP mRNA; sequential: 1 ng/ml TGF-β1 48 hours, then 20 μM genistein 8 hours): 26%
endogenous GFAP transcription, % of the PDGF-BB-alone control (endogenous rat GFAP mRNA; sequential: 10 ng/ml PDGF 24 hours, then 20 μM genistein 24 hours): 8.6%
IC50 (T6/GFAP-lacZ cells [3]; Rattus norvegicus): 25 µM

Reference: patent US20070299029A1, “Hepatic stellate cell specific promoter and uses thereof” (Agency for Science, Technology and Research, priority 2005, published 2007)
